From PubChem BioAssay AID2060501 (Molecular Pharmacology Branch, DTP, NCI, 2025)

Test system: 282377-053-R-J1-PDC complex spheroids, viability
Test: Anticancer human tumor 282377-053-R-J1-PDC patient-derived colon adenocarcinoma cell line growth inhibition [GQUAD]
Details: for IC50: curve of first compound; for viability, T/C: stronger effect = lower value
In short: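 Viability of tumor cells grown as complex spheroids with endothelial and stromal cells, exposed to drug combinations. Top concentration at or near clinical Cmax (else 10 microM), diluted in half-log increments.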

[1] = second compound 0.0316 µM, first compound 0.000999 µM
[2] = second compound 0.0316 µM, first compound 0.00316 µM
[3] = second compound 0.0316 µM, first compound 0.00999 µM
[4] = second compound 0.0316 µM, first compound 0.0316 µM
[5] = second compound 0.0316 µM, first compound 0.0999 µM
[6] = second compound 0.0316 µM, first compound 0.316 µM
[7] = second compound 0.1 µM, first compound 0.000999 µM
[8] = second compound 0.1 µM, first compound 0.00316 µM
[9] = second compound 0.1 µM, first compound 0.00999 µM
[10] = second compound 0.1 µM, first compound 0.0316 µM
[11] = second compound 0.1 µM, first compound 0.0999 µM
[12] = second compound 0.1 µM, first compound 0.316 µM
[13] = second compound 0.316 µM, first compound 0.000999 µM
[14] = second compound 0.316 µM, first compound 0.00316 µM
[15] = second compound 0.316 µM, first compound 0.00999 µM
[16] = second compound 0.316 µM, first compound 0.0316 µM
[17] = second compound 0.316 µM, first compound 0.0999 µM
[18] = second compound 0.316 µM, first compound 0.316 µM
[19] = second compound 1 µM, first compound 0.000999 µM
[20] = second compound 1 µM, first compound 0.00316 µM
[21] = second compound 1 µM, first compound 0.00999 µM
[22] = second compound 1 µM, first compound 0.0316 µM
[23] = second compound 1 µM, first compound 0.0999 µM
[24] = second compound 1 µM, first compound 0.316 µM
[25] = second compound 3.16 µM, first compound 0.000999 µM
[26] = second compound 3.16 µM, first compound 0.00316 µM
[27] = second compound 3.16 µM, first compound 0.00999 µM
[28] = second compound 3.16 µM, first compound 0.0316 µM
[29] = second compound 3.16 µM, first compound 0.0999 µM
[30] = second compound 3.16 µM, first compound 0.316 µM
[31] = second compound 10 µM, first compound 0.000999 µM
[32] = second compound 10 µM, first compound 0.00316 µM
[33] = second compound 10 µM, first compound 0.00999 µM
[34] = second compound 10 µM, first compound 0.0316 µM
[35] = second compound 10 µM, first compound 0.0999 µM
[36] = second compound 10 µM, first compound 0.316 µM
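Also: spheroids exposed to compounds for 7 days before readout.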
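For viability, T/C in this document: percent of vehicle DMSO control viability with 100% = untreated-like growth.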

CC[C@@]1(O)C(=O)OCc2c1cc1n(c2=O)Cc2cc3c(CN(C)C)c(O)ccc3nc2-1 + CN(C)c1ccc(Nc2c3ccc(NC(=O)CCN4CCCC4)cc3nc3cc(NC(=O)CCN4CCCC4)ccc23)cc1
IC50 (second compound 0.0316 µM): > 0.316 µM
IC50 (second compound 0.1 µM): > 0.316 µM
IC50 (second compound 0.316 µM): > 0.316 µM
IC50 (second compound 1 µM): > 0.316 µM
IC50 (second compound 3.16 µM): > 0.316 µM
IC50 (second compound 10 µM): > 0.316 µM
viability, T/C [1]: 108%
viability, T/C [2]: 102%
viability, T/C [3]: 103%
viability, T/C [4]: 118%
viability, T/C [5]: 104%
viability, T/C [6]: 91%
viability, T/C [7]: 92.8%
viability, T/C [8]: 103%
viability, T/C [9]: 95.2%
viability, T/C [10]: 107%
viability, T/C [11]: 115%
viability, T/C [12]: 90.5%
viability, T/C [13]: 105%
viability, T/C [14]: 113%
viability, T/C [15]: 88.5%
viability, T/C [16]: 88.3%
viability, T/C [17]: 104%
viability, T/C [18]: 101%
viability, T/C [19]: 99.3%
viability, T/C [20]: 101%
viability, T/C [21]: 93%
viability, T/C [22]: 89.7%
viability, T/C [23]: 108%
viability, T/C [24]: 87%
viability, T/C [25]: 90.6%
viability, T/C [26]: 87.3%
viability, T/C [27]: 97.8%
viability, T/C [28]: 86.2%
viability, T/C [29]: 102%
viability, T/C [30]: 82.2%
viability, T/C [31]: 88.5%
viability, T/C [32]: 85.7%
viability, T/C [33]: 94.7%
viability, T/C [34]: 79.7%
viability, T/C [35]: 77.3%
viability, T/C [36]: 97%

Cc1[nH]c2ccccc2c1CCNCc1ccc(/C=C/C(=O)NO)cc1 + CN(C)c1ccc(Nc2c3ccc(NC(=O)CCN4CCCC4)cc3nc3cc(NC(=O)CCN4CCCC4)ccc23)cc1
IC50 (second compound 0.0316 µM): 0.189 µM
IC50 (second compound 0.1 µM): 0.189 µM
IC50 (second compound 0.316 µM): 0.179 µM
IC50 (second compound 1 µM): 0.189 µM
IC50 (second compound 3.16 µM): 0.173 µM
IC50 (second compound 10 µM): 0.147 µM
viability, T/C [1]: 106%
viability, T/C [2]: 91.1%
viability, T/C [3]: 109%
viability, T/C [4]: 110%
viability, T/C [5]: 106%
viability, T/C [6]: 6.18%
viability, T/C [7]: 97.3%
viability, T/C [8]: 108%
viability, T/C [9]: 114%
viability, T/C [10]: 89.3%
viability, T/C [11]: 105%
viability, T/C [12]: 7.41%
viability, T/C [13]: 91.8%
viability, T/C [14]: 86.4%
viability, T/C [15]: 91.4%
viability, T/C [16]: 116%
viability, T/C [17]: 99.6%
viability, T/C [18]: 3.85%
viability, T/C [19]: 90.2%
viability, T/C [20]: 98.5%
viability, T/C [21]: 108%
viability, T/C [22]: 121%
viability, T/C [23]: 103%
viability, T/C [24]: 7.41%
viability, T/C [25]: 92.9%
viability, T/C [26]: 95.1%
viability, T/C [27]: 101%
viability, T/C [28]: 123%
viability, T/C [29]: 89.8%
viability, T/C [30]: 6.57%
viability, T/C [31]: 78.5%
viability, T/C [32]: 103%
viability, T/C [33]: 94.6%
viability, T/C [34]: 92.8%
viability, T/C [35]: 73.6%
viability, T/C [36]: 3.92%

Nc1ccn(C2OC(CO)C(O)C2(F)F)c(=O)n1 (stereo unspecified) + CN(C)c1ccc(Nc2c3ccc(NC(=O)CCN4CCCC4)cc3nc3cc(NC(=O)CCN4CCCC4)ccc23)cc1
IC50 (second compound 0.0316 µM): 0.29 µM
IC50 (second compound 0.1 µM): 0.296 µM
IC50 (second compound 0.316 µM): 0.263 µM
IC50 (second compound 1 µM): 0.271 µM
IC50 (second compound 3.16 µM): 0.227 µM
IC50 (second compound 10 µM): 0.228 µM
viability, T/C [4]: 112%
viability, T/C (second compound 0.0316 µM, first compound 0.1 µM): 68.5%
viability, T/C [6]: 49.7%
viability, T/C (second compound 0.0316 µM, first compound 1 µM): 35.8%
viability, T/C (second compound 0.0316 µM, first compound 3.16 µM): 32.5%
viability, T/C (second compound 0.0316 µM, first compound 10 µM): 20.7%
viability, T/C [10]: 114%
viability, T/C (second compound 0.1 µM, first compound 0.1 µM): 78.7%
viability, T/C [12]: 42.9%
viability, T/C (second compound 0.1 µM, first compound 1 µM): 37.7%
viability, T/C (second compound 0.1 µM, first compound 3.16 µM): 30.8%
viability, T/C (second compound 0.1 µM, first compound 10 µM): 20.3%
viability, T/C [16]: 115%
viability, T/C (second compound 0.316 µM, first compound 0.1 µM): 77.9%
viability, T/C [18]: 40.9%
viability, T/C (second compound 0.316 µM, first compound 1 µM): 35.8%
viability, T/C (second compound 0.316 µM, first compound 3.16 µM): 33.7%
viability, T/C (second compound 0.316 µM, first compound 10 µM): 19.7%
viability, T/C [22]: 95%
viability, T/C (second compound 1 µM, first compound 0.1 µM): 77.6%
viability, T/C [24]: 42.7%
viability, T/C (second compound 1 µM, first compound 1 µM): 35.7%
viability, T/C (second compound 1 µM, first compound 3.16 µM): 32.7%
viability, T/C (second compound 1 µM, first compound 10 µM): 20.3%
viability, T/C [28]: 87.6%
viability, T/C (second compound 3.16 µM, first compound 0.1 µM): 59.9%
viability, T/C [30]: 44.5%
viability, T/C (second compound 3.16 µM, first compound 1 µM): 38.3%
viability, T/C (second compound 3.16 µM, first compound 3.16 µM): 38.5%
viability, T/C (second compound 3.16 µM, first compound 10 µM): 26.9%
viability, T/C [34]: 92.1%
viability, T/C (second compound 10 µM, first compound 0.1 µM): 74%
viability, T/C [36]: 40.2%
viability, T/C (second compound 10 µM, first compound 1 µM): 30.9%
viability, T/C (second compound 10 µM, first compound 3.16 µM): 36.3%
viability, T/C (second compound 10 µM, first compound 10 µM): 22.8%
